Like-named read-outs stand apart in the source and are kept apart here.
Columns and labels:
[1] = test system: stable HCV 1b RLuc replicon cells (dicistronic genotype 1b Con1 replicon); test: Renilla luciferase HCV replicon reporter assay, genotype 1b; type: cell-based; settings: Hepatitis C virus, 72 h, stable 1b Con1 RLuc replicon cells, 72 hours; read-out: 1b
How it was run: (§1)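 Antiviral EC50 was determined in HCV replicon cells (stable RLuc lines for 1a H77, 1b Con1, 2a JFH-1 with NS5A L31; J6 NS5A chimera with M31) treated 72 h with compound. Renilla luciferase was then quantified.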

[2] = test system: stable HCV 1a RLuc replicon cells (dicistronic genotype 1a H77 replicon); test: Renilla luciferase HCV replicon reporter assay, genotype 1a; type: cell-based; settings: Hepatitis C virus, 72 h, stable 1a H77 RLuc replicon cells
How it was run: as §1

[3] = test system: stable HCV 2a JFH-1 Rluc replicon cells (L31 present in NS5A); test: Renilla luciferase HCV replicon reporter assay, genotype 2a JFH-1; type: cell-based; settings: Hepatitis C virus
How it was run: as §1

[4] = test system: NS5A chimeric genotype 2a JFH-1 replicon with genotype 2b MD2b-1 strain NS5A gene (M31 present); test: Replicon assay, genotype 2b NS5A chimera; type: cell-based, HCV; settings: Hepatitis C virus
How it was run: (§2)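 Cells carrying the stable or transiently transfected (Huh-Lunet) dicistronic RLuc replicons received 3-fold serial compound dilutions from 10 mM DMSO stocks. After 72 h, cells were lysed and Renilla luciferase read. DMSO served as the no-inhibition control and ITMN-191 above 100×EC50 as the positive control; EC50 by non-linear regression.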

[5] = test system: NS5A chimeric genotype 1b Con1 replicon with genotype 3a S52 strain NS5A gene; test: Replicon assay, genotype 3a NS5A chimera; type: cell-based, HCV; settings: Hepatitis C virus
[6] = IV and PO single dose pharmacokinetic studies in SD rats; type: in vivo, male Sprague-Dawley (SD) rats; settings: Sprague-Dawley, rat, plasma, male SD rats, PO 2 mg/kg vs IV infusion 1 mg/kg, read-out: Rat % F
Experimental: IV and PO Single Dose Pharmacokinetic Studies in SD Rats:
The pharmacokinetics of selected compounds was characterized in male Sprague-Dawley (SD) rats (250-300g). In this study, two groups of naïve purebred SD rats (N=3 per group, fasted over night) received the selected compound either as an intravenous (IV) infusion (1 mg/kg over 30 minutes) via the jugular vein or by oral gavage (2 mg/kg). The intravenous (IV) dosing vehicle was 5% ethanol, 35% polyethylene glycol 400 (PEG 400) and 60% water pH 2.0. The oral dosing vehicle was 5% ethanol, 55% PEG 400 and 40% citrate buffer pH 2.2.
Serial blood samples (approximately 0.3 mL each) were collected from jugular vein or other suitable vein at specified time points. For the IV infusion group, the blood samples were collected predose and at 0.25, 0.48, 0.58, 0.75, 1.5, 3, 6, 8, 12 and 24 hours after the start of infusion. For the oral group, the blood samples were collected predose and at 0.25, 0.50, 1, 2, 4, 6, 8, 12 and 24 hours after dosing. The blood samples were collected into VacutainerγM tubes containing EDTA-K3 as the anti-coagulant and were centrifuged at approximately 4° C. to obtain plasma. The plasma samples were stored at −20° C. until analysis by LC/MS/MS.
A bioanalytical method utilizing high performance liquid chromatography coupled to tandem mass spectrometry (LC/MS/MS) was developed for analysis of the selected compound in rat plasma. Detection was performed using selected reaction monitoring (SRM); Ions representing the precursor (M+H)^+ species was selected in quadrupole 1 (Q1) and collided with argon gas in the collision cell (Q2) to generate specific product ion, which was subsequently monitored by quadrupole 3 (Q3). Standard curve and quality control samples were prepared in male rat plasma and processed in the same way as the test samples to generate quantitative data.
Pharmacokinetic parameters were generated using non-compartmental pharmacokinetic analysis (Phoenix WinNonlin, version 6.3). Values below the lower limit of quantification (LLOQ) were assigned a value of zero if predose and treated as missing thereafter. Area under the curve (AUC) was calculated using the linear trapezoidal rule. The oral bioavailability (% F) was determined by comparison of the area under the curve (AUC) of the compound and/or a metabolite generated in plasma following oral administration to that generated following intravenous administration.

[7] = test system: NS5A chimeric genotype 1b Con1 replicon with genotype 4a ED43 strain NS5A gene; test: Replicon assay, genotype 4a NS5A chimera; type: cell-based, HCV; settings: Hepatitis C virus
[8] = test system: Q30R in genotype 1a NS5A (1a Pi-Rluc replicon, Huh-7-derived cured-51 cells); test: Replicon assay against resistance mutant 1a Q30R; type: cell-based, HCV; settings: Hepatitis C virus
Experimental: Antiviral potency (EC50) was determined using a Renilla luciferase (RLuc)-based HCV replicon reporter assay. To perform the assay for genotype 1 and 2a JFH-1, stable HCV 1a RLuc replicon cells (harboring a dicistronic genotype 1a H77 replicon that encodes a RLuc reporter), stable HCV 1b RLuc replicon cells (harboring a dicistronic genotype 1b Con1 replicon that encodes a RLuc reporter), or stable HCV 2a JFH-1 Rluc replicon cells (harboring a dicistronic genotype 2a JFH-1 replicon that encodes a RLuc reporter; with L31 present in NS5A) were dispensed into 384-well plates for EC50 assays. To perform the assay for genotype 2a (with M31 present in NS5A) or 2b, NS5A chimeric genotype 2a JFH-1 replicons that encodes a RLuc-Neo reporter and either genotype 2a J6 strain NS5A gene or genotype 2b MD2b-1 strain NS5A gene (both with M31 present) respectively, were either transiently transfected (t) into Huh-Lunet cells or were established as stably replicating replicon cells (s) is provided. Either cells were dispensed into 384-well plates for EC50 assays. To perform the assay for genotype 3 and 4, NS5A chimeric genotype 1b Con1 replicons that encodes a Pi-RLuc reporter and either genotype 3a S52 strain NS5A gene or genotype 4a ED43 strain NS5A gene respectively, were transiently transfected (t) into Huh-Lunet cells, which were subsequently dispensed into 384-well plates. Compounds were dissolved in DMSO at a concentration of 10 mM and diluted in DMSO either manually or using an automated pipeting instrument. Serially 3-fold diluted compounds were either manually mixed with cell culture media and added to the seeded cells or directly added to the cells using an automated instrument. DMSO was used as a negative (solvent; no inhibition) control, and the protease inhibitor ITMN-191 was included at a concentration>100×EC50 as a positive control. 72 hours later, cells were lysed and Renilla luciferase activity quantified as recommended by the manufacturer (Promega-Madison, Wis.). Non-linear regression was performed to calculate EC50 values.
To determine the antiviral potency (EC50) against resistance mutants, resistance mutations, including M28T, Q30R, Q30H, Q30E, L31M, Y93C, Y93H, and Y93N in genotype 1a NS5A, Y93H and L31V/Y93H in genotype 1b NS5A, and Y93H for in genotype 3a NS5A, were introduced individually into either 1a Pi-Rluc or 1b Pi-Rluc replicons by site directed mutagenesis. Replicon RNA of each resistant mutant was transiently transfected into Huh-7-derived cured-51 cells and antiviral potency was determined on these transfected cells as described above.

[9] = test system: NS5A chimeric genotype 2a JFH-1 replicon with genotype 2a J6 strain NS5A gene (M31 present); test: Replicon assay, genotype 2a J6 NS5A chimera; type: cell-based, HCV; settings: Hepatitis C virus
How it was run: as §2

[10] = read-out: 2a JFH (nM), genotype 2a JFH-1 replicon (L31 in NS5A), stable cells
[11] = read-out: 2a JFH, stable 2a JFH-1 Rluc replicon cells, L31 in NS5A, activity range
[12] = 2BS, read-out: 2b (s), stably replicating replicon cells (s), activity range
[13] = read-out: 2b (s) (nM), genotype 2b MD2b-1 NS5A chimeric replicon (M31), stably replicating replicon cells (s)
[14] = read-out: 3a (s) (nM), genotype 3a NS5A chimeric replicon, stable replicon cells (s)
[15] = read-out: 3a (s), (s), activity range
[16] = read-out: 4a (s) (nM), genotype 4a NS5A chimeric replicon, stable replicon cells (s)
[17] = read-out: 4a (s), (s), activity range
[18] = read-out: 2a J6 (t) (nM), genotype 2a J6 NS5A chimeric replicon (M31), transiently transfected (t) into Huh-Lunet cells
[19] = read-out: 2a J6 (t), transiently transfected (t) into Huh-Lunet cells, activity range
[20] = read-out: 2b (t) (nM), genotype 2b MD2b-1 NS5A chimeric replicon (M31), transiently transfected (t)
[21] = read-out: 2b (t), transiently transfected (t) into Huh-Lunet cells, activity range

| SMILES | EC50 [1] | EC50 [2] | EC50 ([2]; activity range) | EC50 [3, 10] | EC50 [3, 11] | EC50 [4, 12] | EC50 [4, 13] | EC50 [5, 14] | EC50 [5, 15] | bioavailability [6] | EC50 [7, 16] | EC50 [7, 17] | EC50 ([8]; read-out: 1a Q30R) | EC50 ([8]; read-out: 1a Q30R (nM)) | EC50 [9, 18] | EC50 [9, 19] | EC50 [4, 20] | EC50 [4, 21] | EC50 ([5]; read-out: 3a (t) (nM), genotype 3a NS5A chimeric replicon, transiently transfected (t)) | EC50 ([5]; read-out: 3a (t), transiently transfected (t) into Huh-Lunet cells, activity range) |
| --- | --- | --- | --- | --- | --- | --- | --- | --- | --- | --- | --- | --- | --- | --- | --- | --- | --- | --- | --- | --- |
| CC[C@H]1CC[C@@H](c2nc3ccc4cc5c(cc4c3[nH]2)OCc2cc(-c3cnc([C@@H]4CC[C@H](C)N4C(=O)[C@@H](NC(=O)OC)C(C)C)[nH]3)ccc2-5)N1C(=O)[C@@H](NC(=O)OC)[C@@H](C)OC [EP, Methyl {(2S,3R)-1-[(2S,5S)-2-ethyl-5-(9-{2-[(2S,5S)-1-{(2S)-[(methoxycarbonyl)amino]-3-methylbutanoyl}-5-methylpyrrolidin-2-yl]-1H-imidazol-5-yl}-1,11-dihydroisochromeno[4′,3′:6,7]naphtho[1,2-d]imidazol-2-yl)pyrrolidin-1-yl]-3-methoxy-1l-oxobutan-2-yl}carbamate] | 0.024 nM | 0.014 nM | < 0.1 nM | 0.013 nM | < 0.1 nM | 0.1 to 0.999 nM | 0.213 nM | 0.115 nM | 0.1 to 0.999 nM | 17.5% | – | – | – | – | – | – | – | – | – | – |
| COC(=O)N[C@H](C(=O)N1[C@@H](C)CC[C@H]1c1ncc(-c2ccc3c(c2)COc2cc4c(ccc5nc([C@@H]6CC[C@H](C)N6C(=O)[C@@H](NC(=O)OC)[C@@H](C)OC(F)F)[nH]c54)cc2-3)[nH]1)C(C)C [FM, Methyl {(2S)-1-[(2S,5S)-2-(5-{2-[(2S,5S)-1-{(2S,3R)-3-(difluoromethoxy)-2-[(methoxycarbonyl)amino]butanoyl}-5-methylpyrrolidin-2-yl]-1,11-dihydroisochromeno[4′,3′:6,7]naphtho[1,2-d]imidazol-9-yl}-1H-imidazol-2-yl)-5-methylpyrrolidin-1-yl]-3-methyl-1-oxobutan-2-yl}carbamate] | 0.018 nM | 0.009 nM | < 0.1 nM | 0.019 nM | < 0.1 nM | 0.1 to 0.999 nM | 0.259 nM | 0.061 nM | < 0.1 nM | 22.7% | 0.007 nM | < 0.1 nM | – | – | – | – | – | – | – | – |
| COC[C@H]1C[C@@H](c2ncc(-c3ccc4c(c3)c(=O)oc3cc5c(ccc6nc([C@@H]7CC[C@H](C)N7C(=O)[C@@H](NC(=O)OC)C(C)C)[nH]c65)cc34)[nH]2)N(C(=O)[C@H](NC(=O)OC)c2ccccc2)C1 [GK, methyl {(1R)-2-[(2S,4S)-2-(5-{2-[(2S,5S)-1-{(2S)-2-[(methoxycarbonyl)amino]-3-methylbutanoyl}-5-methylpyrrolidin-2-yl]-11-oxo-1,11-dihydroisochromeno[4′,3′:6,7]naphtho[1,2-d]imidazol-9-yl}-1H-imidazol-2-yl)-4-(methoxymethyl)pyrrolidin-1-yl]-2-oxo-1-phenylethyl}carbamate] | 0.036 nM | 0.031 nM | < 0.1 nM | 0.024 nM | < 0.1 nM | 0.1 to 0.999 nM | 0.187 nM | 0.156 nM | 0.1 to 0.999 nM | – | 0.028 nM | < 0.1 nM | 0.1 to 0.999 nM | 0.111 nM | 0.071 nM | < 0.1 nM | 0.087 nM | < 0.1 nM | – | – |
| CC[C@H]1C[C@@H](c2nc3ccc4cc5c(cc4c3[nH]2)OCc2cc(-c3cnc([C@@H]4CC[C@H](C)N4C(=O)[C@@H](NC(=O)OC)C(C)C)[nH]3)ccc2-5)N(C(=O)[C@@H](NC(=O)OC)C2CCOCC2)C1 [GV] | 0.027 nM | 0.018 nM | < 0.1 nM | 0.008 nM | < 0.1 nM | 0.1 to 0.999 nM | 0.112 nM | 0.042 nM | < 0.1 nM | – | 0.016 nM | < 0.1 nM | < 0.1 nM | 0.061 nM | 0.012 nM | < 0.1 nM | – | – | – | – |
| CC[C@H]1CC[C@@H](c2ncc(-c3ccc4c(c3)COc3cc5c(ccc6nc([C@@H]7CC[C@H](C)N7C(=O)[C@@H](NC(=O)OC)[C@@H](C)OC)[nH]c65)cc3-4)[nH]2)N1C(=O)[C@@H](NC(=O)OC)C1CCOCC1 [HY] | 0.028 nM | 0.015 nM | < 0.1 nM | 0.015 nM | < 0.1 nM | < 0.1 nM | 0.049 nM | 0.052 nM | < 0.1 nM | – | 0.017 nM | < 0.1 nM | < 0.1 nM | 0.046 nM | 0.026 nM | < 0.1 nM | 0.031 nM | < 0.1 nM | 0.055 nM | < 0.1 nM |
